Assay results published in patent US5565484A, “Benzenesulphonylindole derivatives for the preparation of medicines” (Sanofi, priority 1993, dated 1996).
Where two headings read alike, the source gives them in different places.

Experiments:
smooth muscle cells = assay: Inhibition of the proliferation of smooth muscle cells (general statements); assay type: cell-based; settings: qualitative statement
[1] = test system: human aortic smooth muscle cells; assay: in vitro inhibition of proliferation of human aortic smooth muscle cells; assay type: cell-based; settings: read-out: IC50 (inhibition of cell proliferation)
Protocol: "in vitro" tests were carried out using human aortic smooth muscle cells at rest (10^3 cells per test).
These cells were incubated in the presence of minimum eagle medium to which 5% of an agent inducing a cell proliferation was added. These tests were performed with various increasing doses of the compound to be studied compared with controls.

[2] = test system: rabbit carotid arteries (myointimal proliferation); assay: Inhibition of myointimal proliferation induced in rabbit carotid arteries after lesion of the endothelium; assay type: in vivo; settings: oral, 16 days
Protocol: 2) Inhibition of myointimal proliferation induced in rabbit carotid arteries after lesion of the endothelium For this purpose, rabbits from which the endothelium of the carotid artery was removed were used. Two hours before the lesion, the compound to be studied was administered orally. The treatment was continued orally, daily for 16 days, and the surface areas of the intima and of the media were then determined by morphometric measurement.

[3] = test system: Ca^++ surcharge in arterial regions (femoral, mesenteric, aortic etc.); assay: Inhibition of the Ca++ surcharge after treatment with vitamin D3 in rats; assay type: in vivo, rat; settings: administered twice daily; for minimal effective dose: Rattus norvegicus, 72 h, oral, 3 days
Protocol: 1) Inhibition of the Ca^++ surcharge after treatment with vitamin D3 in rats
A test was performed on rats, to which 300,000 IU/kg of vitamin D3 were administered intramuscularly, followed by oral administration of a daily dose of the compound to be studied. The oral treatment using the compound to be tested was continued for 3 days, the animals were sacrificed and the Ca^++ was then assayed in various arterial regions (femoral, mesenteric, aortic etc.).

[4] = Solubility tests in water of SR 33805 salts; assay type: physicochemical; settings: for solubility: (2) water of pH = 3.6
Protocol: (1) solubility in water at 25° C. after stirring for 72 hours
(2) solubility in water of pH = 3.6
(3) solubility after addition of the product to be tested to water at
70° C., stirring and continuation of stirring for 72 h at […]

[5] = Hygroscopicity and storage stability of SR 33805 salts; assay type: physicochemical
calcium translocation = assay: Inhibition of calcium translocation in vitro; assay type: biochemical
cardiovascular system = assay: Activity on the cardiovascular system
[6] = Homo sapiens, 72 h, inducing agent: foetal growth factor, 3 days incubation
[7] = Homo sapiens, Platelet, 72 h, inducing agent: platelet derived growth factor, 3 days incubation
[8] = (3) added to water at 70° C., then stirring 72 h at 25° C., read-out: solubility after addition of the product to be tested to water at 70° C., stirring and continuation of stirring for 72 h at 25° C.
[9] = water, (1) water, 25° C., stirring 72 hours, read-out: solubility in water at 25° C. after stirring for 72 hours

Q: Which results are given for “3-isopropyl-1-[4-{3-[N-methyl-N-(3,4-dimethoxyphenethyl)amino]propoxy}benzenesulphonyl]-indolizine [Fantofarone]”?
A: inhibition of the proliferation of smooth muscle cells (smooth muscle cells): devoid of such properties or have shown themselves to be endowed with these properties at high, or even subtoxic, doses; IC50 ([1]; inducing agent: fetal calf serum, 3 days incubation): 5500 nM; IC50 ([1]; inducing agent: foetal growth factor, 3 days incubation): 2000 nM; IC50 ([1]; inducing agent: platelet derived growth factor, 3 days incubation): > 10000 nM; effect on myointimal hyperplasia ([2]; maximum dose 12 mg/kg): no significant effect; dose from which significant decrease in the total Ca content ([3]; artery not specified, same experimental conditions): 100 mg/kg

Q: Which “effect on myointimal hyperplasia” value ([2]; maximum dose twice 6 mg/kg) does the source give for `COc1ccc([C@@H]2Sc3ccccc3N(CCN(C)C)C(=O)[C@@H]2OC(C)=O)cc1` [Diltiazem] here?
A: Its value is “no significant effect”.

Q: Which results are given for `COC(=O)C1=C(C)NC(C)=C(C(=O)OC)C1c1ccccc1[N+](=O)[O-]` [Nifedipine]?
A: IC50 [1, 6]: 1000 nM; IC50 [1, 7]: > 10000 nM; effect on myointimal hyperplasia ([2]; maximum dose 6 mg/kg or twice 6 mg/kg): no significant effect

Q: Which results are given for `COc1ccc(CCN(C)CCCOc2ccc(S(=O)(=O)c3c(C(C)C)c4ccccc4n3C)cc2)cc1OC.O=C(O)C(=O)O` [SR 33805 A, 1-Methyl-3-isopropyl-2-[4-{3-[N-methyl-N-(3,4-dimethoxyphenethyl)amino]propoxy}benzenesulphonyl]indole hydrogen oxalate]?
A: solubility [4]: 190 µg/mL; solubility thermodynamic at 72 h [4, 8]: 310 µg/mL; solubility thermodynamic at 72 h [4, 9]: 70 µg/mL

Q: With `COc1ccc(CCN(C)CCCOc2ccc(S(=O)(=O)c3c(C(C)C)c4ccccc4n3C)cc2)cc1OC` [SR 33805 B] as the compound, how does the solubility [4] read?
A: The solubility was 100 µg/mL.

Q: What about the solubility thermodynamic at 72 h [4, 8] of the same compound?
A: The solubility thermodynamic at 72 h was 260 µg/mL.

Q: And the solubility thermodynamic at 72 h [4, 9]?
A: The solubility thermodynamic at 72 h was 150 µg/mL.

Q: Which hygroscopicity [5] does the source give for `COc1ccc(CCN(C)CCCOc2ccc(S(=O)(=O)c3c(C(C)C)c4ccccc4n3C)cc2)cc1OC.CS(=O)(=O)O` [SR 33805 C, 1-methyl-3-isopropyl-2-[4-{3-[N-methyl-N-(3,4-dimethoxyphenethyl)amino]propoxy}benzenesulphonyl]-indole methanesulphonate] here?
A: The hygroscopicity was “no signs of hygroscopicity”.

Q: And the “stability under various storage conditions” value ([5]; various storage conditions)?
A: Its value is “good stability”.

Q: What about the IC50 ([1]; Homo sapiens, 72 h, inducing agent: fetal calf serum, 3 days incubation) of the same compound?
A: Its IC50 is 900 nM.

Q: What about the IC50 [1, 6] of the same compound?
A: Its IC50 is 600 nM.

Q: And the IC50 [1, 7]?
A: The IC50 was 300 nM.

Q: What about the solubility [4] of the same compound?
A: Its solubility is 79900 µg/mL.

Q: And the solubility thermodynamic at 72 h [4, 8]?
A: The solubility thermodynamic at 72 h was 98300 µg/mL.

Q: What about the aqueous solubility ([4]; in words, contrary to the other salts of SR 33805) of the same compound?
A: The aqueous solubility was “good aqueous solubility”.

Q: What about the solubility thermodynamic at 72 h [4, 9] of the same compound?
A: Its solubility thermodynamic at 72 h is 67500 µg/mL.

Q: And the minimal effective dose ([2]; Oryctolagus cuniculus, 384 h, read-out: dose from which significant inhibition of myointimal proliferation)?
A: Its minimal effective dose is 1.5 mg/kg.

Q: And the “inhibition of myointimal proliferation” value ([2]; from the dose of 1.5 mg/kg, significant)?
A: Its value is -58%.

Q: And the minimal effective dose ([3]; aorta, read-out: dose from which significant inhibition of the Ca++ surcharge in the aorta)?
A: Its minimal effective dose is 2 mg/kg.

Q: And the minimal effective dose ([3]; mesenteric artery, read-out: dose from which significant inhibition of the Ca++ surcharge in the mesenteric artery)?
A: The minimal effective dose was 5 mg/kg.

Q: For `COc1ccc(CCN(C)CCCOc2ccc(S(=O)(=O)c3c(C(C)C)c4ccccc4n3C)cc2)cc1OC` [SR 33805, 1-methyl-3-isopropyl-2-[4-{3-[N-methyl-N-(3,4-dimethoxyphenethyl)amino]propoxy}benzenesulphonyl]indole], which “inhibition of the proliferation of smooth muscle cells” value (shortened to “inhibition … of smooth muscle cells”) (smooth muscle cells) is on record?
A: Its value is “most interesting inhibitory potentiality”.

Q: For `CNCCCOc1ccc(S(=O)(=O)c2c(C(C)C)c3ccccc3n2C)cc1` [SR 34549, 1-methyl-3-isopropyl-2-{4-[3-(N-methylamino)propoxy]benzenesulfonyl} indole], which “inhibition of the calcium translocation” value (calcium translocation) is on record?
A: The value was “devoid of inhibitory properties”.

Q: And the “inhibition … of smooth muscle cells” value (smooth muscle cells)?
A: The value was “strong activity”.

Q: What about the “activity on the cardiovascular system” value (cardiovascular system) of the same compound?
A: Its value is “very moderate or lack of activity”.

Q: For `COc1ccc(CCN(C)CCCC(C#N)(c2ccc(OC)c(OC)c2)C(C)C)cc1OC` (stereo not drawn) [Verapamil], which “inhibition … of smooth muscle cells” value (smooth muscle cells) is on record?
A: Its value is “devoid of such properties or have shown themselves to be endowed with these properties at high, or even subtoxic, doses”.

Q: What about the IC50 ([1]; Homo sapiens, 72 h) of the same compound?
A: The IC50 was 10000 nM.

Q: What about the “effect on myointimal hyperplasia” value ([2]; maximum dose twice 6 mg/kg) of the same compound?
A: The value was “no significant effect”.
